Where two headings read alike, the source gives them in different places.
Key:
[1] = test system: HBV (HepG2.117 cell line, inducibly HBV producing); assay: Anti-HBV activity: intracellular HBV DNA by real-time PCR in HepG2.117 cells after 3 days of treatment; assay type: cell-based, hepatitis B virus
Experimental: The anti HBV activity was measured using the HepG2.117 cell line, a stable, inducibly HBV producing cell line, which replicates HBV in the absence of doxycycline (Tet-off system). The HepG2 cell line is available from ATCCR under number HB-8065. Transfection of the HepG2 cell line can be as described in Sun and Nassal 2006 Journal of Hepatology 45 (2006) 636-645 “Stable HepG2- and Huh7-based human hepatoma cell lines for efficient regulated expression of infectious hepatitis B virus”.
For the antiviral assay, HBV replication was induced, followed by a treatment with serially diluted compound in 96-well plates. After 3 days of treatment, the antiviral activity was determined by quantification of intracellular HBV DNA using real-time PCR and an HBV specific primer set and probe.

in vitro = assay type: cell-based; conditions: human, HepG2 or HepG2.117 cells, ATPlite, mean value
Experimental: Cytotoxicity of the compounds was tested using HepG2 or HepG2.117 cells, incubated for 3 or 4 days in the presence of compounds. The viability of the cells was assessed using the PERKIN ELMER ATPlite Luminescence Assay System.”

[2] = Hepatitis B virus, HepG2.117, 72 h, HepG2.117 cells, 3 days of treatment, intracellular HBV DNA by real-time PCR; mean value; read-out: EC50 (μM, mean value)
[3] = 3-days incubation (unmarked values)
[4] = Hepatitis B virus, HepG2.117, 72 h, HepG2.117 cells, intracellular HBV DNA by real-time PCR, 3 days of treatment, mean value; read-out: EC50 (μM, mean value)
[5] = 3-days incubation (not marked with *)

Compound	EC50 [1, 2]	CC50 at 3 days (in vitro; [3])	EC50 ([1]; HepG2.117 cells, 3 days of treatment, intracellular HBV DNA by real-time PCR; mean value; read-out: EC50 (μM, mean value))	EC50 [1, 4]	CC50 at 3 days (in vitro; [5])
CNC(=O)c1ccc(-n2c(N[C@H](CCO)C3CC3)nc3c(c2=O)C[C@@H](C)N(C(=O)c2ccc(Cl)c(Cl)c2)C3)cc1 (single isomer, unassigned) [Compound C283, 4-[(6R)-2-{[(1*R)-1-cyclopropyl-3-hydroxypropyl]amino}-7-(3,4-dichlorobenzoyl)-6-methyl-4-oxo-5,6,7,8-tetrahydropyrido[3,4-d]pyrimidin-3(4H)-yl]-N-methylbenzamide]	5.52 µM	> 50 µM	–	–	–
CNC(=O)c1ccc(-n2c(N[C@H](C)c3cccnc3OC)nc3c(c2=O)C[C@@H](C)N(C(=O)c2ccc(Cl)c(Cl)c2)C3)cc1 (single isomer, unassigned) [Compound C285, 4-[(6R)-7-(3,4-dichlorobenzoyl)-2-{[(1*R)-1-(2-methoxypyridin-3-yl)ethyl]amino}-6-methyl-4-oxo-5,6,7,8-tetrahydropyrido[3,4-d]pyrimidin-3(4H)-yl]-N-methylbenzamide]	0.37 µM	27.6 µM	–	–	–
CNC(=O)c1ccc(-n2c(N3CC[C@H]3C)nc3c(c2=O)C[C@@H](C)N(C(=O)c2ccc(Cl)c(Cl)c2)C3)cc1 (single isomer, unassigned) [Compound C311, 4-[(6R)-7-(3,4-dichlorobenzoyl)-6-methyl-2-[(2*R)-2-methylazetidin-1-yl]-4-oxo-5,6,7,8-tetrahydropyrido[3,4-d]pyrimidin-3(4H)-yl]-N-methylbenzamide]	0.09 µM	> 50 µM	–	–	–
CNC(=O)c1ccc(-n2c(N3CC[C@@H]3C)nc3c(c2=O)C[C@@H](C)N(C(=O)c2ccc(Cl)c(Cl)c2)C3)cc1 (single isomer, unassigned) [Compound C312, 4-[(6R)-7-(3,4-dichlorobenzoyl)-6-methyl-2-[(2*S)-2-methylazetidin-1-yl]-4-oxo-5,6,7,8-tetrahydropyrido[3,4-d]pyrimidin-3(4H)-yl]-N-methylbenzamide]	0.26 µM	> 50 µM	–	–	–
CNC(=O)c1ccc(-n2c(NC(C)C)nc3c(c2=O)C[C@@H](C)N(C(=O)c2ccc(Cl)c(Cl)c2)C3)c(OC)c1 (single isomer, unassigned) [Compound C314a]	–	> 50 µM	0.1 µM	–	–
CNC(=O)c1ccc(-n2c(N[C@@H]3CCCC3(C)C)nc3c(c2=O)C[C@@H](C)N(C(=O)c2ccc(Cl)c(Cl)c2)C3)cc1 (single isomer, unassigned) [Compound C318, 4-[(6R)-7-(3,4-dichlorobenzoyl)-2-{[(1*R)-2,2-dimethylcyclopentyl]amino}-6-methyl-4-oxo-5,6,7,8-tetrahydropyrido[3,4-d]pyrimidin-3(4H)-yl]-N-methylbenzamide]	0.68 µM	23.2 µM	–	–	–
CNC(=O)c1ccc(-n2c(N[C@H]3CCCC3(C)C)nc3c(c2=O)C[C@@H](C)N(C(=O)c2ccc(Cl)c(Cl)c2)C3)cc1 (single isomer, unassigned) [Compound C319, 4-[(6R)-7-(3,4-dichlorobenzoyl)-2-{[(1*S)-2,2-dimethylcyclopentyl]amino}-6-methyl-4-oxo-5,6,7,8-tetrahydropyrido[3,4-d]pyrimidin-3(4H)-yl]-N-methylbenzamide]	0.21 µM	23.5 µM	–	–	–
CNC(=O)c1ccc(-n2c(N[C@H](C)c3ccccn3)nc3c(c2=O)C[C@@H](C)N(C(=O)c2ccc(Cl)c(Cl)c2)C3)cc1 (single isomer, unassigned) [Compound C320, 4-[(6R)-7-(3,4-dichlorobenzoyl)-6-methyl-4-oxo-2-{[(1*R)-1-(pyridin-2-yl)ethyl]amino}-5,6,7,8-tetrahydropyrido[3,4-d]pyrimidin-3(4H)-yl]-N-methylbenzamide]	0.27 µM	> 50 µM	–	–	–
CNC(=O)c1ccc(-n2c(N[C@@H](C)c3ccccn3)nc3c(c2=O)C[C@@H](C)N(C(=O)c2ccc(Cl)c(Cl)c2)C3)cc1 (single isomer, unassigned) [Compound C321, 4-[(6R)-7-(3,4-dichlorobenzoyl)-6-methyl-4-oxo-2-{[(1*S)-1-(pyridin-2-yl)ethyl]amino}-5,6,7,8-tetrahydropyrido[3,4-d]pyrimidin-3(4H)-yl]-N-methylbenzamide]	0.94 µM	> 50 µM	–	–	–
CNC(=O)c1ccc(-n2c(N[C@@H](c3ccccc3)C3CC3)nc3c(c2=O)C[C@@H](C)N(C(=O)c2ccc(Cl)c(Cl)c2)C3)cc1 (single isomer, unassigned) [Compound C342, 4-[(6R)-2-{[(*R)-cycopropyl(phenyl)methyl]amino}-7-(3,4-dichlorobenzoyl)-6-methyl-4-oxo-5,6,7,8-tetrahydropyrido[3,4-d]pyrimidin-3(4H)-yl]-N-methylbenzamide]	0.37 µM	16 µM	–	–	–
CNC(=O)c1ccc(-n2c(N[C@H](c3ccccc3)C3CC3)nc3c(c2=O)C[C@@H](C)N(C(=O)c2ccc(Cl)c(Cl)c2)C3)cc1 (single isomer, unassigned) [Compound C343, 4-[(6R)-2-{[(*S)-cycopropyl(phenyl)methyl]amino}-7-(3,4-dichlorobenzoyl)-6-methyl-4-oxo-5,6,7,8-tetrahydropyrido[3,4-d]pyrimidin-3(4H)-yl]-N-methylbenzamide]	0.19 µM	13.7 µM	–	–	–
CNC(=O)c1ccc(-n2c(N[C@@H]3CCC34CCC4)nc3c(c2=O)C[C@@H](C)N(C(=O)c2ccc(Cl)c(Cl)c2)C3)cc1 (single isomer, unassigned) [Compound C346a]	–	–	–	0.94 µM	27.6 µM
CNC(=O)c1ccc(-n2c(N[C@H]3CCC34CCC4)nc3c(c2=O)C[C@@H](C)N(C(=O)c2ccc(Cl)c(Cl)c2)C3)cc1 (single isomer, unassigned) [Compound C346b]	–	–	–	0.22 µM	> 50 µM
CNC(=O)c1ccc(-n2c(N[C@H](C)c3ccc(OC)cc3)nc3c(c2=O)C[C@@H](C)N(C(=O)c2ccc(Cl)c(Cl)c2)C3)cc1 (single isomer, unassigned) [Compound C347a]	–	–	–	0.1 µM	35.1 µM
CNC(=O)c1ccc(-n2c(N[C@@H](C)c3ccc(OC)cc3)nc3c(c2=O)C[C@@H](C)N(C(=O)c2ccc(Cl)c(Cl)c2)C3)cc1 (single isomer, unassigned) [Compound C347b]	–	–	–	0.27 µM	> 50 µM
CNC(=O)c1ccc(-n2c(N3CC[C@@H]3c3ccccc3)nc3c(c2=O)C[C@@H](C)N(C(=O)c2ccc(Cl)c(Cl)c2)C3)cc1 (single isomer, unassigned) [Compound C348, 4-[(6R)-7-(3,4-dichlorobenzoyl)-6-methyl-4-oxo-2-[(2*R)-2-phenylazetidin-1-yl]-5,6,7,8-tetrahydropyrido[3,4-d]pyrimidin-3(4H)-yl]-N-methylbenzamide]	0.2 µM	31.2 µM	–	–	–
CNC(=O)c1ccc(-n2c(N3CC[C@H]3c3ccccc3)nc3c(c2=O)C[C@@H](C)N(C(=O)c2ccc(Cl)c(Cl)c2)C3)cc1 (single isomer, unassigned) [Compound C349, 4-[(6R)-7-(3,4-dichlorobenzoyl)-6-methyl-4-oxo-2-[(2*S)-2-phenylazetidin-1-yl]-5,6,7,8-tetrahydropyrido[3,4-d]pyrimidin-3(4H)-yl]-N-methylbenzamide]	0.32 µM	31.7 µM	–	–	–
C#C[C@H]1CCCN1c1nc2c(c(=O)n1-c1ccc(C(=O)NC)cc1)C[C@@H](C)N(C(=O)c1ccc(Cl)c(Cl)c1)C2 (single isomer, unassigned) [Compound C350, 4-[(6R)-7-(3,4-dichlorobenzoyl)-2-[(2*R)-2-ethynylpyrrolidin-1-yl]-6-methyl-4-oxo-5,6,7,8-tetrahydropyrido[3,4-d]pyrimidin-3(4H)-yl]-N-methylbenzamide]	0.23 µM	> 50 µM	–	–	–
C#C[C@@H]1CCCN1c1nc2c(c(=O)n1-c1ccc(C(=O)NC)cc1)C[C@@H](C)N(C(=O)c1ccc(Cl)c(Cl)c1)C2 (single isomer, unassigned) [Compound C351, 4-[(6R)-7-(3,4-dichlorobenzoyl)-2-[(2*S)-2-ethynylpyrrolidin-1-yl]-6-methyl-4-oxo-5,6,7,8-tetrahydropyrido[3,4-d]pyrimidin-3(4H)-yl]-N-methylbenzamide]	0.2 µM	> 50 µM	–	–	–
CNC(=O)c1ccc(-n2c(N3CCC[C@@H]3C3CC3)nc3c(c2=O)C[C@@H](C)N(C(=O)c2ccc(Cl)c(Cl)c2)C3)cc1 (single isomer, unassigned) [Compound C352, 4-[(6R)-2-[(2*R)-2-cyclopropylpyrrolidin-1-yl]-7-(3,4-dichlorobenzoyl)-6-methyl-4-oxo-5,6,7,8-tetrahydropyrido[3,4-d]pyrimidin-3(4H)-yl]-N-methylbenzamide]	0.29 µM	27.5 µM	–	–	–
CNC(=O)c1ccc(-n2c(N3CCC[C@H]3C3CC3)nc3c(c2=O)C[C@@H](C)N(C(=O)c2ccc(Cl)c(Cl)c2)C3)cc1 (single isomer, unassigned) [Compound C353, 4-[(6R)-2-[(2*S)-2-cyclopropylpyrrolidin-1-yl]-7-(3,4-dichlorobenzoyl)-6-methyl-4-oxo-5,6,7,8-tetrahydropyrido[3,4-d]pyrimidin-3(4H)-yl]-N-methylbenzamide]	0.11 µM	19.5 µM	–	–	–

— US20230091047A1 (priority 2019, published 2023)
